Reference: the CheMixHub viscosity set
± gives the uncertainty stated by the source.

Assay: xn = mol fraction of the nth substance listed

CCCC=O + CCCCO
viscosity [mPa·s], 100 kPa
Settings | 294.53 K | 294.63 K | 319.13 K | 320.13 K
x2 = 0.59 | – | 5.78 ± 0.066 | 2.552 ± 0.03 | –
x2 = 0.9 | 5.49 ± 0.062 | – | – | 2.98 ± 0.034

CCCCCOC(C)=O + Cc1ccccc1O
Settings | viscosity [mPa·s]
298.15 K, 101 kPa, x2 = 0.5 | 1.165 ± 0.011

C[NH+]1CCCC1=O.O=S(=O)([O-])c1ccccc1 + O
viscosity [mPa·s]
Settings | 293.15 K | 298.15 K | 303.15 K | 308.15 K
100 kPa, x1 = 0.001798 | 1.074 ± 0.012 | 0.9472 ± 0.011 | 0.8439 ± 0.0098 | 0.7688 ± 0.0089
100 kPa, x1 = 0.003606 | 1.137 ± 0.013 | – | 0.8882 ± 0.01 | 0.8029 ± 0.0093
100 kPa, x1 = 0.005372 | 1.198 ± 0.014 | 1.053 ± 0.012 | 0.9316 ± 0.011 | –
100 kPa, x1 = 0.008042 | 1.285 ± 0.015 | – | 0.998 ± 0.011 | 0.8943 ± 0.01
100 kPa, x1 = 0.01069 | 1.372 ± 0.016 | 1.206 ± 0.014 | – | 0.9518 ± 0.011
100 kPa, x1 = 0.01421 | 1.491 ± 0.017 | – | – | –
100 kPa, x1 = 0.02115 | 1.749 ± 0.02 | – | – | –
100 kPa, x1 = 0.02631 | 1.971 ± 0.023 | 1.746 ± 0.02 | 1.541 ± 0.018 | 1.369 ± 0.016
100 kPa, x1 = 0.03141 | 2.217 ± 0.026 | 1.963 ± 0.023 | 1.737 ± 0.02 | 1.527 ± 0.018
101 kPa, x1 = 0.005347 | – | 1.055 ± 0.012 | – | –
101 kPa, x1 = 0.01545 | – | – | 1.185 ± 0.014 | –

CCCCCCCCCCCCCC(=O)OC + CCCCCO
viscosity [mPa·s], 100 kPa
Settings | x2 = 0.1012 | x2 = 0.2002 | x2 = 0.2997 | x2 = 0.4007 | x2 = 0.4997 | x2 = 0.6007 | x2 = 0.7006 | x2 = 0.7997 | x2 = 0.9
293.15 K | 4.279 ± 0.17 | 4.092 ± 0.17 | 3.927 ± 0.16 | 3.791 ± 0.15 | 3.695 ± 0.15 | 3.592 ± 0.15 | 3.512 ± 0.14 | 3.539 ± 0.14 | 3.679 ± 0.15
298.15 K | 3.789 ± 0.15 | 3.61 ± 0.15 | 3.474 ± 0.14 | 3.371 ± 0.14 | 3.249 ± 0.13 | 3.162 ± 0.13 | 3.1 ± 0.13 | 3.1 ± 0.13 | 3.191 ± 0.13
303.15 K | 3.336 ± 0.14 | 3.189 ± 0.13 | 3.071 ± 0.13 | 2.96 ± 0.12 | 2.868 ± 0.12 | 2.794 ± 0.11 | 2.729 ± 0.11 | 2.72 ± 0.11 | 2.795 ± 0.11
308.15 K | 2.932 ± 0.12 | 2.809 ± 0.12 | 2.701 ± 0.11 | 2.603 ± 0.11 | 2.524 ± 0.1 | 2.454 ± 0.1 | 2.397 ± 0.098 | 2.384 ± 0.098 | 2.429 ± 0.099
313.15 K | 2.641 ± 0.11 | 2.533 ± 0.1 | 2.43 ± 0.099 | 2.342 ± 0.096 | 2.268 ± 0.093 | 2.197 ± 0.09 | 2.15 ± 0.088 | 2.126 ± 0.087 | 2.159 ± 0.088
318.15 K | 2.42 ± 0.099 | 2.318 ± 0.095 | 2.234 ± 0.091 | 2.142 ± 0.088 | 2.071 ± 0.085 | 2.006 ± 0.082 | 1.96 ± 0.08 | 1.938 ± 0.079 | 1.949 ± 0.08
323.15 K | 2.18 ± 0.089 | 2.089 ± 0.086 | 2.009 ± 0.082 | 1.931 ± 0.079 | 1.865 ± 0.076 | 1.803 ± 0.074 | 1.764 ± 0.072 | 1.73 ± 0.071 | 1.738 ± 0.071

O=C(O)C(=O)O + C[N+](C)(C)CCO.[Cl-]
viscosity [mPa·s], x2 = 0.5
Settings | 293.15 K | 293.2 K | 298.15 K | 303.2 K | 308.15 K | 313.2 K | 318.15 K
100 kPa | 15680 ± 1300 | – | 8953 ± 680 | – | 3332 ± 220 | – | 1421 ± 82
101.3 kPa | – | 7595 ± 1700 | – | 4359 ± 690 | – | 2174 ± 340 | –

C=CC(=O)OC + CCCCCCCO
viscosity [mPa·s], 101.3 kPa
Settings | x1 = 0.0803 | x1 = 0.219 | x1 = 0.2841 | x1 = 0.4009 | x1 = 0.5184 | x1 = 0.7017 | x1 = 0.7824 | x1 = 0.8604 | x1 = 0.9347 | x1 = 0.9686
298.15 K | 4.278 ± 0.19 | 2.912 ± 0.13 | 2.304 ± 0.11 | 1.632 ± 0.077 | 1.218 ± 0.059 | 0.783 ± 0.04 | 0.653 ± 0.035 | 0.563 ± 0.031 | 0.493 ± 0.028 | 0.467 ± 0.027
308.15 K | 3.262 ± 0.15 | 2.282 ± 0.11 | 1.857 ± 0.086 | 1.348 ± 0.065 | 1.032 ± 0.051 | 0.677 ± 0.036 | 0.568 ± 0.031 | 0.49 ± 0.028 | 0.428 ± 0.025 | 0.411 ± 0.024

O=C1OCCO1 + CNC(C)=O
313.15 K, 101.33 kPa
Settings | viscosity [mPa·s]
x1 = 0.0747 | 2.732 ± 0.014
x1 = 0.1786 | 2.456 ± 0.012
x1 = 0.2841 | 2.246 ± 0.01
x1 = 0.3817 | 2.099 ± 0.009
x1 = 0.4799 | 1.984 ± 0.008
x1 = 0.5724 | 1.903 ± 0.008
x1 = 0.6726 | 1.845 ± 0.007
x1 = 0.7707 | 1.814 ± 0.007
x1 = 0.869 | 1.824 ± 0.007
x1 = 0.9684 | 1.893 ± 0.007

CC(C)CO + CC#N
viscosity [mPa·s]
Settings | x2 = 0.1676 | x2 = 0.3118 | x2 = 0.4373 | x2 = 0.5476 | x2 = 0.6442 | x2 = 0.7304 | x2 = 0.8083 | x2 = 0.8784 | x2 = 0.942 | x2 = 0.9432
298.15 K, 101.3 kPa | 1.788 ± 0.042 | 1.186 ± 0.029 | 0.87 ± 0.022 | 0.692 ± 0.018 | 0.567 ± 0.015 | 0.483 ± 0.014 | 0.434 ± 0.013 | 0.395 ± 0.012 | 0.371 ± 0.011 | –
303.15 K, 101 kPa | – | – | – | – | – | – | – | – | – | 0.5569 ± 0.25
303.15 K, 101.3 kPa | 1.582 ± 0.037 | 1.064 ± 0.026 | 0.793 ± 0.02 | 0.634 ± 0.017 | 0.532 ± 0.015 | 0.455 ± 0.013 | 0.411 ± 0.012 | 0.376 ± 0.011 | 0.362 ± 0.011 | –
308.15 K, 101.3 kPa | 1.389 ± 0.033 | 0.962 ± 0.024 | 0.725 ± 0.019 | 0.586 ± 0.016 | 0.494 ± 0.014 | 0.428 ± 0.012 | 0.39 ± 0.012 | 0.358 ± 0.011 | 0.344 ± 0.011 | –
313.15 K, 101.3 kPa | 1.232 ± 0.03 | 0.869 ± 0.022 | 0.664 ± 0.018 | 0.548 ± 0.015 | 0.461 ± 0.013 | 0.405 ± 0.012 | 0.373 ± 0.011 | 0.342 ± 0.011 | 0.324 ± 0.01 | –

O=C1OCCO1 + CS(C)=O
313.15 K, 101.33 kPa
Settings | viscosity [mPa·s]
x2 = 0.0721 | 1.862 ± 0.007
x2 = 0.1744 | 1.786 ± 0.007
x2 = 0.2849 | 1.709 ± 0.006
x2 = 0.3698 | 1.656 ± 0.006
x2 = 0.469 | 1.611 ± 0.006
x2 = 0.5668 | 1.571 ± 0.005
x2 = 0.6744 | 1.538 ± 0.005
x2 = 0.7969 | 1.515 ± 0.005
x2 = 0.8782 | 1.51 ± 0.005
x2 = 0.9732 | 1.511 ± 0.005

C=CC(=O)OCCCC + CCCCC(C)O
viscosity [mPa·s], 101 kPa
Settings | 298.15 K | 308.15 K
x1 = 0.05546 | 3.742 ± 0.03 | 2.694 ± 0.026
x1 = 0.0999 | 3.477 ± 0.027 | 2.526 ± 0.024
x1 = 0.1555 | 3.172 ± 0.025 | 2.33 ± 0.022
x1 = 0.1999 | 2.948 ± 0.023 | 2.185 ± 0.02
x1 = 0.2554 | 2.69 ± 0.021 | 2.015 ± 0.018
x1 = 0.3 | 2.499 ± 0.019 | 1.889 ± 0.017
x1 = 0.3555 | 2.28 ± 0.018 | 1.743 ± 0.016
x1 = 0.4 | 2.119 ± 0.016 | 1.634 ± 0.015
x1 = 0.4553 | 1.934 ± 0.015 | 1.508 ± 0.013
x1 = 0.5 | 1.796 ± 0.014 | 1.413 ± 0.013
x1 = 0.5556 | 1.639 ± 0.013 | 1.304 ± 0.012
x1 = 0.5998 | 1.523 ± 0.012 | 1.222 ± 0.011
x1 = 0.6554 | 1.39 ± 0.011 | 1.128 ± 0.01
x1 = 0.6998 | 1.291 ± 0.011 | 1.057 ± 0.01
x1 = 0.7554 | 1.178 ± 0.01 | 0.957 ± 0.009
x1 = 0.8 | 1.095 ± 0.01 | 0.914 ± 0.009
x1 = 0.8554 | 0.999 ± 0.009 | 0.844 ± 0.009
x1 = 0.9 | 0.928 ± 0.009 | 0.791 ± 0.008
x1 = 0.9555 | 0.847 ± 0.008 | 0.729 ± 0.008
